Data as given in patent US4051237A, “Glycopeptide antibiotics Bu-2231 A and B and process for producing same” (priority 1975, dated 1977).
≈ marks a conversion by molar mass, not a printed value.

Tests used:
E. coli NIHJ [1] = assay: MIC by two-fold agar dilution; assay type: cell-based; details: Mueller-Hinton agar, unit assumed
K. pneumoniae D11 = assay: MIC by two-fold agar dilution; assay type: cell-based; details: Mueller-Hinton agar, unit assumed
K. pneumoniae A9678 = assay: MIC by two-fold agar dilution; assay type: cell-based; details: Mueller-Hinton agar, unit assumed
K. pneumoniae A20328 = assay: MIC by two-fold agar dilution; assay type: cell-based; details: Mueller-Hinton agar, unit assumed
P. mirabilis A9554 = assay: MIC by two-fold agar dilution; assay type: cell-based; details: Mueller-Hinton agar, unit assumed
P. stuartii A20894 = assay: MIC by two-fold agar dilution; assay type: cell-based; details: Mueller-Hinton agar, unit assumed
S. marcescens A20333 = assay: MIC by two-fold agar dilution; assay type: cell-based; details: Mueller-Hinton agar, unit assumed
S. marcescens A21235 = assay: MIC by two-fold agar dilution; assay type: cell-based; details: Mueller-Hinton agar, unit assumed
P. aeruginosa A9930 = assay: MIC by two-fold agar dilution; assay type: cell-based; details: Mueller-Hinton agar, unit assumed
P. aeruginosa H9, D113 = assay: MIC by two-fold agar dilution; assay type: cell-based; details: Mueller-Hinton agar, unit assumed
P. aeruginosa A20741 = assay: MIC by two-fold agar dilution; assay type: cell-based; details: Mueller-Hinton agar, unit assumed
S. aureus Smith A9537 = assay: MIC by two-fold agar dilution; assay type: cell-based; details: Mueller-Hinton agar, unit assumed
S. aureus #193 = assay: MIC by two-fold agar dilution; assay type: cell-based; details: Mueller-Hinton agar, unit assumed
S. aureus 209P, R4 = assay: MIC by two-fold agar dilution; assay type: cell-based; details: Mueller-Hinton agar, unit assumed
Experimental: The minimum inhibitory concentrations (MIC) of Bu-2231 A and B were determined against a wide variety of bacteria and fungi by the two-fold agar dilution method. Mueller-Hinton agar medium was used for the determination of bacterial MIC's (gram-positive and gram-negative), Medium #1001 [Glycerol (3%). Na-glutamate (0.3%), peptone (0.2%), Na2 HPO4 (0.31%), KH2 PO4 (0.1%), ammonium citrate (0.005%), MgSO4.7H2 O (0.001%), agar (1.5%)] for acid-fast bacteria and sabouraud agar for fungi. The results are shown in Tables 9 and 10 comparatively with bleomycin and phleomycin. The antibacterial and antifungal activities of Bu-2231 A and B are much higher than those of the reference antibiotics.

S. aureus A20239 = assay: MIC by two-fold agar dilution; assay type: cell-based; details: Mueller-Hinton agar, unit assumed
S. aureus BX-1633,A9606 = assay: MIC by two-fold agar dilution; assay type: cell-based; details: Mueller-Hinton agar, unit assumed
M. flavus D12 = assay: MIC by two-fold agar dilution; assay type: cell-based; details: Mueller-Hinton agar, unit assumed
B. mycoides "0" = assay type: cell-based; details: Mueller-Hinton agar, unit assumed
B. sphaericus #122 = assay: MIC by two-fold agar dilution; assay type: cell-based; details: Mueller-Hinton agar, unit assumed
B. cereus ATCC 10702A = assay: MIC by two-fold agar dilution; assay type: cell-based; details: Mueller-Hinton agar, unit assumed
B. subtilis PCI-219 = assay: MIC by two-fold agar dilution; assay type: cell-based; details: Mueller-Hinton agar, unit assumed
Mycobacterium 607, D87 = assay: MIC by two-fold agar dilution; assay type: cell-based; details: Medium #1001, unit assumed
Mycobacterium 607, D46 = assay: MIC by two-fold agar dilution; assay type: cell-based; details: Medium #1001, unit assumed
Mycobacterium phlei, D88 = assay: MIC by two-fold agar dilution; assay type: cell-based; details: Medium #1001, unit assumed
[2] = system: Mycobacterium ranae, ATCC110; assay: MIC by two-fold agar dilution; assay type: cell-based; details: Medium #1001, unit assumed
C. albicans IAM 4888 = assay: MIC by two-fold agar dilution; assay type: cell-based; details: Ca-1 C. albicans IAM 4888; sabouraud agar; unit assumed
C. albicans Nystatin-R = assay: MIC by two-fold agar dilution; assay type: cell-based; details: Ca-2 C. albicans Nystatin-R; sabouraud agar; unit assumed
[3] = system: C. albicans #520 Yale A9540; assay: MIC by two-fold agar dilution; assay type: cell-based; details: Ca-4 C. albicans #520 Yale A9540; sabouraud agar; unit assumed
C. krusei IAM 4489 = assay: MIC by two-fold agar dilution; assay type: cell-based; details: Ck-1 C. krusei IAM 4489; sabouraud agar; unit assumed
C. tropicalis IAM 4157 = assay: MIC by two-fold agar dilution; assay type: cell-based; details: Ct-1 C. tropicalis IAM 4157; sabouraud agar; unit assumed
Hormodendrum sp. = assay: MIC by two-fold agar dilution; assay type: cell-based; details: Hy-1 Hormodendrum sp.; sabouraud agar; unit assumed
Mucor sp. = assay: MIC by two-fold agar dilution; assay type: cell-based; details: My-1 Mucor sp.; sabouraud agar; unit assumed
[4] = system: F. moniliforme NRRL A2284; assay: MIC by two-fold agar dilution; assay type: cell-based; details: Fm-1 F. moniliforme NRRL A2284; sabouraud agar; unit assumed
C. lunata ATCC 13432 = assay: MIC by two-fold agar dilution; assay type: cell-based; details: Cl-1 C. lunata ATCC 13432; sabouraud agar; unit assumed
P. citrinum IAM 7008 = assay: MIC by two-fold agar dilution; assay type: cell-based; details: Pt-1 P. citrinum IAM 7008; sabouraud agar; unit assumed
T. mentagrophytes D-155 = assay: MIC by two-fold agar dilution; assay type: cell-based; details: Tm-1 T. mentagrophytes D-155; sabouraud agar; unit assumed
T. rubrum D-55 = assay: MIC by two-fold agar dilution; assay type: cell-based; details: Tr-1 T. rubrum D-55; sabouraud agar; unit assumed
M. canis D-51 = assay: MIC by two-fold agar dilution; assay type: cell-based; details: Mc-1 M. canis D-51; sabouraud agar; unit assumed
E. coli NIHJ [5] = assay: In vivo activity in experimental mice infection; details: Table 12
Experimental: The in vivo activity of Bu-2231 complex was evaluated in experimental mice infections against S. aureus Smith and E. coli NIHJ. Bleomycin was tested comparatively as a reference antibiotic.
The in vivo activty of the individual components of Bu-2231 in each of the copper-free and copper complex forms was also determined in E. coli infection.

## Cc1c(N)nc([C@H](CC(N)=O)NC[C@@H](N)C(N)=O)nc1C(=O)N[C@H](C(=O)N[C@H](C)[C@@H](O)CC(=O)N[C@@H](C(=O)NC(O[C@@H]1O[C@@H](C)[C@@H](N)[C@@H](O)[C@H]1O)C(O)c1nc(-c2nc(C(=O)NCCCNCCCCN)cs2)cs1)[C@@H](C)O)C(O[C@@H]1O[C@@H](CO)[C@H](O)[C@@H](O)[C@@H]1O[C@H]1O[C@H](CO)[C@@H](O)[C@@H](OC(N)=O)[C@@H]1O)c1cnc[nH]1 (stereo partly shown) [Bu-2231 B Cu-free]
E. coli NIHJ [1]
  MIC: 0.2 µg/mL (≈ 0.125 µM)
K. pneumoniae D11
  MIC: 0.025 µg/mL (≈ 0.0156 µM)
K. pneumoniae A9678
  MIC: 0.4 µg/mL (≈ 0.249 µM)
K. pneumoniae A20328
  MIC: 1.6 µg/mL (≈ 0.998 µM)
P. mirabilis A9554
  MIC: 0.2 µg/mL (≈ 0.125 µM)
P. stuartii A20894
  MIC: 0.4 µg/mL (≈ 0.249 µM)
S. marcescens A20333
  MIC: 0.8 µg/mL (≈ 0.499 µM)
S. marcescens A21235
  MIC: 1.6 µg/mL (≈ 0.998 µM)
P. aeruginosa A9930
  MIC: 0.8 µg/mL (≈ 0.499 µM)
P. aeruginosa H9, D113
  MIC: > 100 µg/mL
P. aeruginosa A20741
  MIC: 0.2 µg/mL (≈ 0.125 µM)
S. aureus Smith A9537
  MIC: 0.05 µg/mL (≈ 0.0312 µM)
S. aureus #193
  MIC: 0.4 µg/mL (≈ 0.249 µM)
S. aureus 209P, R4
  MIC: 0.8 µg/mL (≈ 0.499 µM)
S. aureus A20239
  MIC: 0.8 µg/mL (≈ 0.499 µM)
S. aureus BX-1633,A9606
  MIC: 0.8 µg/mL (≈ 0.499 µM)
M. flavus D12
  MIC: 0.4 µg/mL (≈ 0.249 µM)
B. mycoides "0"
  MIC: 0.2 µg/mL (≈ 0.125 µM)
B. sphaericus #122
  MIC: 0.2 µg/mL (≈ 0.125 µM)
B. cereus ATCC 10702A
  MIC: 0.2 µg/mL (≈ 0.125 µM)
B. subtilis PCI-219
  MIC: < 0.0063 µg/mL
Mycobacterium 607, D87
  MIC: 0.1 µg/mL (≈ 0.0624 µM)
Mycobacterium 607, D46
  MIC: 0.1 µg/mL (≈ 0.0624 µM)
Mycobacterium phlei, D88
  MIC: 0.05 µg/mL (≈ 0.0312 µM)
[2]
  MIC: 0.1 µg/mL (≈ 0.0624 µM)
C. albicans IAM 4888
  MIC: 0.8 µg/mL (≈ 0.499 µM)
C. albicans Nystatin-R
  MIC: 0.8 µg/mL (≈ 0.499 µM)
[3]
  MIC: 1.6 µg/mL (≈ 0.998 µM)
C. krusei IAM 4489
  MIC: 0.4 µg/mL (≈ 0.249 µM)
C. tropicalis IAM 4157
  MIC: 0.8 µg/mL (≈ 0.499 µM)
Hormodendrum sp.
  MIC: 0.2 µg/mL (≈ 0.125 µM)
Mucor sp.
  MIC: 3.1 µg/mL (≈ 1.93 µM)
[4]
  MIC: 0.8 µg/mL (≈ 0.499 µM)
C. lunata ATCC 13432
  MIC: 0.2 µg/mL (≈ 0.125 µM)
P. citrinum IAM 7008
  MIC: 1.6 µg/mL (≈ 0.998 µM)
T. mentagrophytes D-155
  MIC: 6.3 µg/mL (≈ 3.93 µM)
T. rubrum D-55
  MIC: 0.8 µg/mL (≈ 0.499 µM)
M. canis D-51
  MIC: 0.8 µg/mL (≈ 0.499 µM)
E. coli NIHJ [5]; E. coli NIHJ infection, mice, sc
  PD50: 0.065 mg/kg
E. coli NIHJ [5]; dose (sc) 0.008
  In vivo activity vs. E. coli NIHJ infection (x/5 mice): 0/5
E. coli NIHJ [5]; dose (sc) 0.03
  In vivo activity vs. E. coli NIHJ infection (x/5 mice): 1/5
E. coli NIHJ [5]; dose (sc) 0.13
  In vivo activity vs. E. coli NIHJ infection (x/5 mice): 4/5
E. coli NIHJ [5]; dose (sc) 0.5
  In vivo activity vs. E. coli NIHJ infection (x/5 mice): 5/5
E. coli NIHJ [5]; dose (sc) 2
  In vivo activity vs. E. coli NIHJ infection (x/5 mice): 5/5

## Phleomycin [reference compound]
E. coli NIHJ [1]
  MIC: 0.8 µg/mL
K. pneumoniae D11
  MIC: 0.4 µg/mL
K. pneumoniae A9678
  MIC: 12.5 µg/mL
K. pneumoniae A20328
  MIC: > 100 µg/mL
P. mirabilis A9554
  MIC: 1.6 µg/mL
P. stuartii A20894
  MIC: 0.8 µg/mL
S. marcescens A20333
  MIC: 0.8 µg/mL
S. marcescens A21235
  MIC: 0.8 µg/mL
P. aeruginosa A9930
  MIC: 3.1 µg/mL
P. aeruginosa H9, D113
  MIC: > 100 µg/mL
P. aeruginosa A20741
  MIC: 6.3 µg/mL
S. aureus Smith A9537
  MIC: 0.1 µg/mL
S. aureus #193
  MIC: 0.2 µg/mL
S. aureus 209P, R4
  MIC: 0.4 µg/mL
S. aureus A20239
  MIC: 0.4 µg/mL
S. aureus BX-1633,A9606
  MIC: 0.4 µg/mL
M. flavus D12
  MIC: 0.2 µg/mL
B. mycoides "0"
  MIC: 0.2 µg/mL
B. sphaericus #122
  MIC: 0.4 µg/mL
B. cereus ATCC 10702A
  MIC: 0.2 µg/mL
B. subtilis PCI-219
  MIC: < 0.0063 µg/mL
Mycobacterium 607, D87
  MIC: 0.4 µg/mL
Mycobacterium 607, D46
  MIC: 0.2 µg/mL
Mycobacterium phlei, D88
  MIC: 0.1 µg/mL
[2]
  MIC: 0.4 µg/mL
C. albicans IAM 4888
  MIC: 3.1 µg/mL
C. albicans Nystatin-R
  MIC: 1.6 µg/mL
[3]
  MIC: 6.3 µg/mL
C. krusei IAM 4489
  MIC: 0.8 µg/mL
C. tropicalis IAM 4157
  MIC: 3.1 µg/mL
Hormodendrum sp.
  MIC: 0.8 µg/mL
Mucor sp.
  MIC: 3.1 µg/mL
[4]
  MIC: 12.5 µg/mL
C. lunata ATCC 13432
  MIC: 0.4 µg/mL
P. citrinum IAM 7008
  MIC: 3.1 µg/mL
T. mentagrophytes D-155
  MIC: 12.5 µg/mL
T. rubrum D-55
  MIC: 3.1 µg/mL
M. canis D-51
  MIC: 6.3 µg/mL
